Laboratory results as given in patent publication US20230365691A1, “USE OF ANTI-PD-1 ANTIBODY IN TREATMENT OF NASOPHARYNGEAL CARCINOMA” (SHANGHAI JUNSHI BIOSCIENCES CO., LTD., priority 2020, published 2023).
Like-named read-outs stand apart in the source and are kept apart here.

Legend:
[1] = tested on: recurrent or metastatic nasopharyngeal carcinoma patient; conditions: human, in vivo
Text: Inclusion criteria: eligible subjects must (1) be 18 years old or older, (2) have recurrent or metastatic nasopharyngeal carcinoma, (3) be refractory to standard systemic therapy or have progressive disease after 6 months of radiotherapy and chemotherapy, (4) have an ECOG score of 0 or 1, (5) have the normal organ function within 10 days […] treatment, (6) have no history of autoimmune diseases or other malignant cancers, and (7) have not received any anti-PD-1/or anti-PD-L1 immunotherapy before.
Subjects must have an evaluable lesion according to RECIST v 1.1, have not received anti-tumour monoclonal antibody drug treatment within 4 weeks before treatment, have not received any anti-tumour drug treatment within 2 weeks before treatment, and have not received systemic steroid drug treatment within 7 days before treatment.
From Dec. 22, 2016 to Feb. 19, 2019, a total of 279 patients with recurrent or metastatic NPC were screened from 17 centres in Chinese mainland, and 190 patients were enrolled in this study. […] Of the two histological subtypes, 182 patients (95.8%) had non-keratinizing NPC and 8 patients (4.2%) had keratinizing NPC. There were 116 patients (61.1%) who had received at least two kinds of systemic therapy.
Test drug: anti-PD-1 antibody toripalimab (WO 2014206107). […]

[2] = tested on: recurrent or metastatic nasopharyngeal carcinoma patient; experiment: Single-arm phase II clinical trial of toripalimab: anti-tumour activity by RECIST v1.1 / irRECIST; assay type: in vivo, human
Procedure: Test drug: anti-PD-1 antibody toripalimab (WO 2014206107).
The subjects were evaluated every 8 weeks for the first year and every 12 weeks thereafter according to RECIST v1.1 and the Immune-Related Response Evaluation Criteria in Solid Tumour (irRECIST). The subjects were evaluated every 3 months after drug discontinuance.
This was a single-arm, phase II, open-label clinical trial. This study was conducted to evaluate the safety and anti-tumour activity of an anti-PD-1 antibody in treatment of a recurrent or metastatic nasopharyngeal carcinoma patient.

[3] = Immunogenicity: anti-drug antibodies (ADAs) in the phase II trial; assay type: in vivo, human
Text: Anti-drug antibodies (ADAs) were detected in 190 patients. Seven cases (3.7%) were positive for ADA, including four consecutive positive samples.

[4] = tested on: recurrent or metastatic nasopharyngeal carcinoma patient; assay type: in vivo, human
Procedure: The PD-L1 expression status in tumour biopsies was determined by SP142 IHC staining, with tumour proportion score (TPS) > 1% being determined as positive.
Tumour biopsy tissues and matched peripheral blood samples from subjects were subjected to whole exome sequencing (WES) to identify tumour-specific mutations. […] In this study, the top 10% or 20% cut-off values of TMB (2.9 Muts/Mb and 2.0 Muts/Mb, respectively) were selected for evaluation of clinical response.
The correlation between genomic changes and clinical efficacy was analysed.
Plasma was collected from patients before administration, and the number of copies of EBV DNA was analysed by qRT-PCR once every 4 weeks.

[5] = Investigator, RECIST1.1, n = 190
[6] = Investigator, irRECIST, n = 190
[7] = at least two prior treatments (n = 116)
[8] = keratinizing versus non-keratinizing NPC

toripalimab
patients subjected to dose interruption due to TRAEs [1]: 3.7%
CR ([2]; IRC, RECIST1.1, n = 190): 5 (2.6%)
NE ([2]; IRC, RECIST1.1, n = 190): 28 (14.7%)
PD ([2]; IRC, RECIST1.1, n = 190): 86 (45.3%)
PR ([2]; IRC, RECIST1.1, n = 190): 34 (17.9%)
CR ([2]; IRC, RECIST v1.1, 190 patients): 5 cases
PR ([2]; IRC, RECIST v1.1, 190 patients): 34 cases
CR ([2]; IRC, irRECIST, n = 190): 5 (2.6%)
NE ([2]; IRC, irRECIST, n = 190): 28 (14.7%)
PD ([2]; IRC, irRECIST, n = 190): 71 (37.4%)
PR ([2]; IRC, irRECIST, n = 190): 34 (17.9%)
ORR ([2]; IRC, keratinizing NPC (n = 8)): 62.5%
ORR ([2]; IRC, non-keratinizing NPC (n = 182)): 18.7%
CR [2, 5]: 5 (2.6%)
DCR (%) [2, 5]: 88 (46.3%)
NE [2, 5]: 24 (12.6%)
ORR (%) [2, 5]: 40 (21.1%)
PD [2, 5]: 78 (41.1%)
PR [2, 5]: 35 (18.4%)
CR [2, 6]: 5 (2.6%)
DCR (%) [2, 6]: 103 (54.2%)
NE [2, 6]: 28 (14.7%)
ORR (%) [2, 6]: 44 (23.2%)
PD [2, 6]: 59 (31.1%)
PR [2, 6]: 39 (20.5%)
median DOR ([2]; all subjects): 12.8 months
median overall survival (mOS) ([2]; all subjects): 17.4 months
median progression-free survival (mPFS) ([2]; all subjects): 1.9 months
median time to response ([2]; all subjects): 1.8 months
patients who had died ([2]; as of Feb. 19, 2020, 190 patients): 49.5%
mOS [2, 7]: 15.1 months
mPFS [2, 7]: 2.0 months
median DOR [2, 7]: 21.5 months
OS ([2]; keratinizing NPC): not reached
PFS ([2]; keratinizing NPC): 16.6 months
HR for OS [2, 8]: 0.51
HR for PFS [2, 8]: 0.46
subjects who had reductions in target lesions relative to baseline ([2]; n = 190): 38.4%
subjects with a reduction greater than or equal to 30% in target lesions from baseline ([2]; n = 190): 25.3%
OS ([2]; non-keratinizing NPC): 15.1 months
PFS ([2]; non-keratinizing NPC): 1.9 months
ORR ([2]; patients who had received at least two prior treatments (n = 116)): 21.6%
median OS ([2]; subjects experiencing objective response (n = 39) or stable disease (n = 38)): not reached
median OS ([2]; subjects with progressive disease (n = 113)): 8.4 months
cases positive for ADA ([3]; 190 patients): 3.7%
difference in incidence of AEs, SAEs and AEs of grade 3 or above, drug discontinuance or dose delay, and clinical efficacy ([3]; between ADA positive and negative patients): no significant difference
PFS ([4]; 10% of patients with the highest TMB value, similar to the 90% with the lowest TMB value): 1.9 months
ORR ([4]; 11 patients with genome amplification of CCND1 and/or FGF14, FGF3 or FGF4 chromosome 11q13 region): 0%
median time of at least 2-fold increase in plasma EBV DNA copies prior to imaging-confirmed progressive disease ([4]; 14 patients who experienced progressive disease): 3 months
ORR ([4]; 19 patients with ETV6 mutations): 5.3%
ORR ([4]; PD-L1+ patients): 27.1%
ORR ([4]; PD-L1- patients): 19.4%
mOS ([4]; PD-L1 > 25%): not reached
mPFS ([4]; PD-L1 > 25%): 7.2 months
HR for OS ([4]; PD-L1 > 25% versus ≤ 25%): 0.57
HR for PFS ([4]; PD-L1 > 25% versus ≤ 25%): 0.64
mPFS ([4]; PD-L1 ≤ 25%): 1.9 months
ORR ([4]; at least 2-fold decrease in plasma EBV DNA copies on day 28 (n = 60)): 48.3%
ORR ([4]; baseline EBV titre < 10000 IU/mL): 26.7%
ORR ([4]; baseline EBV titre ≥ 10000 IU/mL): 15.4%
OS ([4]; high TMB patients): 9.2 months
ORR ([4]; less than 2-fold decrease in plasma EBV DNA copies on day 28 (n = 88)): 5.7%
OS ([4]; low TMB patients): 17.4 months
ORR ([4]; patients with PD-L1 > 25%): 38.1%
ORR ([4]; patients with PD-L1 ≤ 25%): 19.3%
median decrease in the number of copies of EBV DNA in plasma from baseline to the nadir ([4]; patients with objective response (n = 34)): 31 fold
change in the number of copies of EBV DNA in plasma from baseline ([4]; patients with progressive disease (n = 80)): no change
decrease in the number of copies of EBV DNA in plasma from baseline to the nadir ([4]; patients with stable disease (n = 35)): 3 fold
ORR ([4]; top 10% of patients by TMB (cut-off 2.9 Muts/Mb)): 17.6%
ORR ([4]; top 20% of patients by TMB (cut-off 2.0 Muts/Mb)): 14.3%
